Positions count from the first letter of the chain named. Several values for one entry are separate records, joined by “and”; a condition that tells them apart may be missing. Identical values can stand only once.
Columns and labels:
B. burgdorferi PncA = B. burgdorferi PncA (Borreliella burgdorferi, UniProt G1FKW2); assay: Naam inhibition assay, B. burgdorferi PncA; type: biochemical, Borrelia burgdorferi
[1] = molecular target: Myzus persicae (aphid) Naam; assay: Naam inhibition assay, aphid Naam; type: biochemical
[2] = molecular target: T1, recombinant Naam A265E mutant (Drosophila melanogaster, UniProt Q9VDU7, A265E)
T1 sequence (Q9VDU7 1-357 A265E): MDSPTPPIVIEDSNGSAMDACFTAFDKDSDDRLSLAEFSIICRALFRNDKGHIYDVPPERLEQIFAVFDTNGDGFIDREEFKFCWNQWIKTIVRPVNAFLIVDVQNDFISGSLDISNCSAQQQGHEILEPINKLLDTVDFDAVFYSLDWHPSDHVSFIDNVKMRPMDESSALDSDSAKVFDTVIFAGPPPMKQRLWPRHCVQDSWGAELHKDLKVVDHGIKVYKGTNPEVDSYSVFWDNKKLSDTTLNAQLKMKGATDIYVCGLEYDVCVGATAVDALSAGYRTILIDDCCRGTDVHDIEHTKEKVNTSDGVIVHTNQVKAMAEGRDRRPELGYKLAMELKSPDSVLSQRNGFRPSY

mice = conditions: cited from earlier work
[3] = molecular target: Nilaparvata lugens (planthopper) Naam; assay: Naam inhibition assay, planthopper Naam; type: biochemical
[4] = molecular target: T2, recombinant Naam T294E mutant (Drosophila melanogaster, UniProt Q9VDU7, T294E); type: biochemical
T2 sequence (Q9VDU7 1-357 T294E): T1 sequence (Q9VDU7 1-357 A265E) with E265A, T294E

[5] = molecular target: T3, recombinant Drosophila Naam (Drosophila melanogaster, UniProt Q9VDU7); assay: Naam enzyme activity and inhibition assay; type: biochemical
T3 sequence (Q9VDU7 1-357): T1 sequence (Q9VDU7 1-357 A265E) with E265A

[6] = molecular target: T4, Apis mellifera (honey bee) Naam2 (Apis mellifera, UniProt A0A7M7MP11); assay: Naam enzyme activity and inhibition assay, honey bee Naam2; type: biochemical
T4 sequence (A0A7M7MP11 1-346): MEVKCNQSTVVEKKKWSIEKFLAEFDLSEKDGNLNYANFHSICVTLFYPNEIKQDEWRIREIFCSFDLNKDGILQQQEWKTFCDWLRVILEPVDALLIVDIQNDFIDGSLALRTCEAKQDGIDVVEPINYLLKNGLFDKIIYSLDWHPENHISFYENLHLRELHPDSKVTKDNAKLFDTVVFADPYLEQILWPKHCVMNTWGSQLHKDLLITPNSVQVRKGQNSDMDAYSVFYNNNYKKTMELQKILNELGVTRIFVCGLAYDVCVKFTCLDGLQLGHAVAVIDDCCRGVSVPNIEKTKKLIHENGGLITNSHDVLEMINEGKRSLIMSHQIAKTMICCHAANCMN

Drosophila flies = assay: Climbing assay; type: in vivo, Drosophila melanogaster
C. elegans PNC-2 = molecular target: T5, C. elegans PNC-2 (Caenorhabditis elegans, UniProt Q7YTI0); assay: Naam inhibition assay, C. elegans PNC-2; type: biochemical
T5 sequence (Q7YTI0 1-316): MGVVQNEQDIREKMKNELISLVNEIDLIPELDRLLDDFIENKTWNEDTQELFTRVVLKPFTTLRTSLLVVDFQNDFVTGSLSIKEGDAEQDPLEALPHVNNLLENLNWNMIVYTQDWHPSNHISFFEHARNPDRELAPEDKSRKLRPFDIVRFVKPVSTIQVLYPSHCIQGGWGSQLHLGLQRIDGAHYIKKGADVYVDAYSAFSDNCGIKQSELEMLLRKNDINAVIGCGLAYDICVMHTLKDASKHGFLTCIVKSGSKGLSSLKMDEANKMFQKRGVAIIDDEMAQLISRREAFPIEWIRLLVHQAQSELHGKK

[7] = molecular target: T6, Aedes albopictus (mosquito) Naam (Aedes albopictus, UniProt A0ABM2A4C4); assay: Naam inhibition assay, mosquito Naam; type: biochemical
T6 sequence (A0ABM2A4C4 1-377): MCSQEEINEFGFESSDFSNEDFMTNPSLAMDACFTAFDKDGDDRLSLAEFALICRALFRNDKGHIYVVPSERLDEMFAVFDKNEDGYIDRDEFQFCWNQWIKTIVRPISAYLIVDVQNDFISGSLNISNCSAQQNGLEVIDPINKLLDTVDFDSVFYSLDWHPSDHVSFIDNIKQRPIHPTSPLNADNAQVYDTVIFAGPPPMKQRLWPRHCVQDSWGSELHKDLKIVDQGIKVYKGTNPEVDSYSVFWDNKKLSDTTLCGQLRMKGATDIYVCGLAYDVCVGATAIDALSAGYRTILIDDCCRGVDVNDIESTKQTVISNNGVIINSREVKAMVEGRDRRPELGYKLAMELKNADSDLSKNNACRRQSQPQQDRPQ

C. elegans PNC-1 = molecular target: T7, C. elegans PNC-1 (Caenorhabditis elegans, UniProt Q9N426); assay: Naam inhibition assay, C. elegans PNC-1; type: biochemical
T7 sequence (Q9N426 25-335): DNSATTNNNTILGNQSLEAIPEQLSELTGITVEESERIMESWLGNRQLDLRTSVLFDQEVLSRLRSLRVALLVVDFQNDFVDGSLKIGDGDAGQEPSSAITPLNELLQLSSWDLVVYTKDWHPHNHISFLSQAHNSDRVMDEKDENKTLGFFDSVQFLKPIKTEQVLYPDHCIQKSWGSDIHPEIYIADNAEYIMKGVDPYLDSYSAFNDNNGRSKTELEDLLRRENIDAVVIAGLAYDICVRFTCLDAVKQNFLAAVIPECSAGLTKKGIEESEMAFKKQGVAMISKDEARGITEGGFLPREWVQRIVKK

Nan-Iav TRPV channels = conditions: cited from earlier work
[8] = system: C. elegans N2 Bristol strain; assay: Egg-laying assay; type: in vivo, Caenorhabditis elegans; conditions: wild-type nematodes, high concentrations

NC(=O)c1cnccc1C(F)(F)F [TFNA-AM, 4-trifluoromethylnicotinamide]
Ki (B. burgdorferi PncA): 2370 nM | Ki [1]: 80 nM | resistance based on increase in Ki vs wild-type Naam [2]: 415.7 fold | LD50 (median lethal dose) (mice): > 2000 mg/kg | Ki [3]: 600 nM | resistance based on increase in Ki vs wild-type Naam [4]: 7.5 fold | Ki [5]: 720 nM | enzymatic activity of Naam in the presence of compound ([5]; 100 μM): markedly reduced the enzyme activity | Ki [6]: 16700 nM | fold less sensitive than the honey bee Naam1 ([6]; Ki Naam2 vs Naam1): 21 fold | fold less sensitive than the aphid Naam ([6]; Ki Naam2 vs aphid Naam): 209 fold | reduction of climbing ability compared with FL (Drosophila flies; 2 mM, after 1 hour of feeding, score at 30 s): more effective than FL | difference to FL in reduction of climbing ability (Drosophila flies; 2 mM, after 3 hours of feeding, score at 30 s): not significant | effect on climbing scores in combination with NAM (Drosophila flies; 10 or 20 μM combined with NAM): significantly synergized the toxicity of NAM | negative geotaxis (climbing index at 30 s) (Drosophila flies; control flies, 2 mM for 3 hours): < 15% | climbing index (at 30 s) (Drosophila flies; in vivo): 68% and 52% | concentration that suppressed negative geotaxis (Drosophila flies; in vivo): ≥ 20 µM | effect of Naam knockdown on climbing index (Drosophila flies; in vivo): had no effect | effect on negative geotaxis (Drosophila flies; in vivo): virtually abolished | effect on negative geotaxis of Naam^A265E flies (Drosophila flies; in vivo): did not impair negative geotaxis | sensitivity of heterozygous control flies in climbing assays (Drosophila flies; in vivo): as sensitive as wild-type flies | effect on climbing scores, alone (Drosophila flies; low doses (10 or 20 μM) alone): negligible effects | sensitivity of PNC-2 (C. elegans PNC-2): neither PNC-1 nor PNC-2 was sensitive | Ki [7]: 1090 nM | sensitivity of PNC-1 (C. elegans PNC-1): neither PNC-1 nor PNC-2 was sensitive | activation of heterologously expressed Nan-Iav TRPV channels (Nan-Iav TRPV channels): neither FL nor its metabolite TFNA-AM activates

CC1=NNC(=O)N(/N=C/c2cccnc2)C1 [pymetrozine]
sensitivity of Naam knockdown flies (Drosophila flies; in vivo): still sensitive

CC(=O)N1C(=O)N(NCc2cccnc2)Cc2cc(C(F)(C(F)(F)F)C(F)(F)F)ccc21 [pyrifluquinazon]
sensitivity of Naam knockdown flies (Drosophila flies; in vivo): still sensitive

O=Cc1cccnc1 [NAH, Nicotinaldehyde]
Ki [5]: 330 nM | effect on flies in climbing assays (Drosophila flies; even at 5 mM): no significant effect | number of eggs laid [8]: significantly reduced the number of eggs laid

O=Cc1cnccc1C(F)(F)F [TNAH, 4-(trifluoromethyl)nicotinaldehyde]
number of eggs laid [8]: significantly reduced the number of eggs laid

NC(=O)c1cccnc1 [NAM, nicotinamide]
turnover number relative to wild-type Naam ([2]; A265E substitution): ~ 22% | effect on climbing scores (Drosophila flies; 2 or 5 mM): no significant effect | effect on climbing scores (Drosophila flies; feeding high concentrations (> 10 mM)): reduced the climbing scores

Source: paper PMC9683716 (Science Advances, 2022)
